From patent publication US20240131028A1, “CHEMOVACCINATION AGAINST PLASMODIUM INFECTION WITH SELECTIVE PLASMEPSIN X INHIBITORS” (Merck Sharp & Dohme LLC, priority 2021, published 2024)

System: ring stage parasites (Pf)
Test: Parasite lactate dehydrogenase (LDH) growth assay (Parasite Assay, PfLDH Assay)
Format: cell-based, P. falciparum
Conditions: Plasmodium falciparum, 72 h, Table 3; 72 hours growth, LDH readout; read-out: EC50

Point of comparison: CC1(C)CC(=O)N([C@@H](c2cncc(Cl)c2)[C@H]2C[C@@H]2C(=O)N[C@H]2C[C@H](C(F)(F)F)Oc3ccccc32)C(=N)N1 [Example 60B], EC50 100 nM. Against it:
- CC1(C)CC(=O)N([C@H](c2cccc(C#N)c2)[C@H]2C[C@@H]2C(=O)N[C@@H]2c3ccccc3OC(C)(C)[C@H]2O)C(=N)N1 [Example 51] — 19-fold lower, 5.3 nM
- CC1(C)CC(=O)N([C@H](c2cccc(C#N)c2)[C@H]2C[C@@H]2C(=O)N[C@H]2C[C@H](C(F)(F)F)Oc3ccccc32)C(=N)N1 [Example 52] — 100-fold lower, 1 nM
- CC1(C)CC(=O)N(C(c2cccc(C#N)c2)[C@H]2C[C@@H]2C(=O)NC2CC(C)(C)Oc3ccc(F)cc32)C(=N)N1 (stereo partly drawn) [Example 53A] — 32-fold lower, 3.1 nM
- CCC1(CC)CC(=O)N([C@@H](c2cccnc2)[C@H]2C(C)[C@@H]2C(=O)N[C@H]2CC(C)(C)Oc3ccccc32)C(=N)N1 (stereo partly drawn) [Example 56A] — 1.5-fold lower, 65 nM
- CCC1(CC)CC(=O)N([C@H](c2cccnc2)[C@H]2C(C)[C@@H]2C(=O)N[C@H]2CC(C)(C)Oc3ccccc32)C(=N)N1 (stereo partly drawn) [Example 56B] — 140-fold lower, 0.7 nM
- CC1[C@H]([C@@H](c2cccnc2)N2C(=N)NC(C)(C)CC2=O)[C@H]1C(=O)N[C@H]1CC(C)(C)Oc2ccccc21 (stereo partly drawn) [Example 57A] — 31-fold lower, 3.2 nM
- CC1[C@H](C(c2cccnc2)N2C(=N)NC(C)(C)CC2=O)[C@H]1C(=O)N[C@H]1CC(C)(C)Oc2ccccc21 (stereo partly drawn) [Example 57B] — the same, 100 nM
- CC1(C)CC(=O)N([C@@H](c2cncc(Cl)c2)[C@H]2C[C@@H]2C(=O)N[C@H]2CC(C)(C)Oc3ccccc32)C(=N)N1 [Example 58A] — 2.1-fold higher, 210 nM
- CC1(C)CC(=O)N([C@H](c2cncc(Cl)c2)[C@H]2C[C@@H]2C(=O)N[C@H]2CC(C)(C)Oc3ccccc32)C(=N)N1 [Example 58B] — 100-fold lower, 1 nM
- CC1(C)CC(=O)N([C@H](c2cncc(Cl)c2)[C@H]2C[C@@H]2C(=O)N[C@@H]2c3ccccc3OC(C)(C)[C@H]2O)C(=N)N1 [Example 59] — 26-fold lower, 3.8 nM
- CC1(C)CC(=O)N([C@H](c2cncc(Cl)c2)[C@H]2C[C@@H]2C(=O)N[C@H]2C[C@H](C(F)(F)F)Oc3ccccc32)C(=N)N1 [Example 60A] — 200-fold lower, 0.5 nM
- CC[C@]1(C)CC(=O)N([C@H](CCOC)[C@H]2C[C@@H]2C(=O)N[C@@H]2c3ccccc3OC(C)(C)[C@H]2O)C(=N)N1 [Example 61] — 14-fold lower, 6.9 nM
- CC[C@]1(C)CC(=O)N([C@@H](CCOC)[C@H]2C[C@@H]2C(=O)N[C@H]2C[C@H](C(F)(F)F)Oc3ccccc32)C(=N)N1 [Example 62A] — 3.2-fold lower, 31 nM
- CC[C@]1(C)CC(=O)N([C@H](CCOC)[C@H]2C[C@@H]2C(=O)N[C@H]2C[C@H](C(F)(F)F)Oc3ccccc32)C(=N)N1 [Example 62B] — 120-fold lower, 0.8 nM
- CC[C@]1(C)CC(=O)N([C@H](c2cccnc2)[C@H]2C[C@@H]2C(=O)N[C@H]2CC(C)(C)Oc3ccccc32)C(=N)N1 [Example 63] — 83-fold lower, 1.2 nM
- CC[C@]1(C)CC(=O)N([C@H](CCOC)[C@H]2C[C@@H]2C(=O)N[C@H]2CC(C)(C)Oc3ccccc32)C(=N)N1 [Example 64A] — 43-fold lower, 2.3 nM
- CC[C@]1(C)CC(=O)N([C@@H](CCOC)[C@H]2C[C@@H]2C(=O)N[C@H]2CC(C)(C)Oc3ccccc32)C(=N)N1 [Example 64B] — 1.9-fold higher, 195 nM
- CC[C@]1(C)CC(=O)N([C@H](c2cncc(F)c2)[C@H]2C[C@@H]2C(=O)N[C@@H]2c3ccccc3OC(C)(C)[C@H]2O)C(=N)N1 [Example 66] — 38-fold lower, 2.6 nM
- CC[C@@]1(C)CC(=O)N(C(c2cncc(F)c2)[C@H]2C[C@@H]2C(=O)N[C@H]2CC(C)(C)Oc3ccccc32)C(=N)N1 (stereo partly drawn) [Example 67A] — 110-fold lower, 0.9 nM
- CC[C@]1(C)CC(=O)N([C@H](c2cncc(F)c2)[C@H]2C[C@@H]2C(=O)N[C@H]2C[C@H](C(F)(F)F)Oc3ccccc32)C(=N)N1 [Example 68] — 330-fold lower, 0.3 nM
- COCC[C@H]([C@H]1C[C@@H]1C(=O)N[C@@H]1CC(C)(C)Oc2cc(OC)ccc21)N1C(=N)NC(C)(C)CC1=O [Example 70A] — within 1.5-fold, 77 nM
- COCC[C@H]([C@H]1C[C@@H]1C(=O)N[C@H]1CC(C)(C)Oc2cc(OC)ccc21)N1C(=N)NC(C)(C)CC1=O [Example 70B] — 5.3-fold lower, 19 nM
- CC1(C)CC(=O)N(C[C@H]2C[C@@H]2C(=O)N[C@H]2CC(C)(C)Oc3ccc(F)cc32)C(=N)N1 [Example 71] — within 1.5-fold, 125 nM
- COCC[C@H]([C@H]1C[C@@H]1C(=O)N[C@@H]1CC(C)(C)Oc2ccc(F)cc21)N1C(=N)NC(C)(C)CC1=O [Example 72A] — 9.1-fold lower, 11 nM
- COCC[C@H]([C@H]1C[C@@H]1C(=O)N[C@H]1CC(C)(C)Oc2ccc(F)cc21)N1C(=N)NC(C)(C)CC1=O [Example 72B] — 40-fold lower, 2.5 nM
- COc1cccc2c1[C@@H](NC(=O)[C@H]1C[C@@H]1CN1C(=N)NC(C)(C)CC1=O)CC(C)(C)O2 [Example 73] — 1.9-fold higher, 192 nM
- COCC[C@H]([C@H]1C[C@@H]1C(=O)N[C@@H]1CC(C)(C)Oc2cccc(OC)c21)N1C(=N)NC(C)(C)CC1=O [Example 74A] — 3-fold lower, 33 nM
- COCC[C@H]([C@H]1C[C@@H]1C(=O)N[C@H]1CC(C)(C)Oc2cccc(OC)c21)N1C(=N)NC(C)(C)CC1=O [Example 74B] — 32-fold lower, 3.1 nM
- CCC1(C)CC(NC(=O)[C@H]2C[C@@H]2[C@@H](CCOC)N2C(=N)NC(C)(C)CC2=O)c2ccccc2O1 (stereo partly drawn) [Example 75A] — 12-fold lower, 8.2 nM
- COCC[C@H]([C@H]1C[C@@H]1C(=O)NC1CC(C)(C)Oc2cc(F)ccc21)N1C(=N)NC(C)(C)CC1=O (stereo partly drawn) [Example 76A] — 5.9-fold lower, 17 nM
- CC1(C)CC(=O)N([C@H](c2cccnc2)[C@H]2C[C@@H]2C(=O)NC2CC(C)(C)Oc3cc(F)ccc32)C(=N)N1 (stereo partly drawn) [Example 77A] — 59-fold lower, 1.7 nM
- CCC1(C)C[C@H](NC(=O)[C@H]2C[C@@H]2CN2C(=N)NC(C)(C)CC2=O)c2ccccc2O1 (stereo partly drawn) [Example 78] — 3-fold higher, 300 nM
- CC(C)C1(C)CC(NC(=O)[C@H]2C[C@@H]2CN2C(=N)NC(C)(C)CC2=O)c2ccccc2O1 (stereo partly drawn) [Example 79A] — 2.5-fold higher, 255 nM
- COCC[C@H]([C@H]1C[C@@H]1C(=O)N[C@H]1CC(C)(C)Oc2cc(C)ccc21)N1C(=N)NC(C)(C)CC1=O [Example 83A] — 15-fold lower, 6.6 nM
- COCC[C@H]([C@H]1C[C@@H]1C(=O)N[C@@H]1CC(C)(C)Oc2cc(C)ccc21)N1C(=N)NC(C)(C)CC1=O [Example 83B] — 3.8-fold lower, 26 nM
- Cc1ccc2c(c1)OC(C)(C)C[C@@H]2NC(=O)[C@H]1C[C@@H]1CN1C(=N)NC(C)(C)CC1=O [Example 84] — 2.9-fold higher, 289 nM
- Cc1ccc2c(c1)OC(C)(C)C[C@@H]2NC(=O)[C@H]1C[C@@H]1[C@@H](c1cccnc1)N1C(=N)NC(C)(C)CC1=O [Example 85A] — 42-fold lower, 2.4 nM
- Cc1ccc2c(c1)OC(C)(C)C[C@H]2NC(=O)[C@H]1C[C@@H]1[C@@H](c1cccnc1)N1C(=N)NC(C)(C)CC1=O [Example 85B] — 110-fold lower, 0.9 nM
- CC1(C)CC(=O)N([C@H](c2cccnc2)[C@H]2C[C@@H]2C(=O)N[C@@H]2CC(C)(C)Oc3cccc(F)c32)C(=N)N1 [Example 86A] — 45-fold lower, 2.2 nM
- CC1(C)CC(=O)N(C[C@H]2C[C@@H]2C(=O)N[C@H]2CC(C)(C)Oc3cccc(F)c32)C(=N)N1 [Example 87] — 1.6-fold higher, 160 nM
- COCC[C@H]([C@H]1C[C@@H]1C(=O)N[C@H]1CC(C)(C)Oc2cccc(F)c21)N1C(=N)NC(C)(C)CC1=O [Example 88A] — 19-fold lower, 5.2 nM
- COCC[C@H]([C@H]1C[C@@H]1C(=O)N[C@@H]1CC(C)(C)Oc2cccc(F)c21)N1C(=N)NC(C)(C)CC1=O [Example 88B] — 10-fold lower, 10 nM
- COCC[C@H]([C@H]1C[C@@H]1C(=O)N[C@H]1CC(C)(C)Oc2cc(Cl)ccc21)N1C(=N)NC(C)(C)CC1=O [Example 89A] — 18-fold lower, 5.6 nM
- COCC[C@H]([C@H]1C[C@@H]1C(=O)N[C@@H]1CC(C)(C)Oc2cc(Cl)ccc21)N1C(=N)NC(C)(C)CC1=O [Example 89B] — 4.5-fold lower, 22 nM

Same assay, conditions: Table 3; 72 hours growth, LDH readout; read-out: EC50

Point of comparison: CC[C@@]1(C)CC(=O)N(C(c2cncc(F)c2)[C@H]2C[C@@H]2C(=O)N[C@H]2CC(C)(C)Oc3ccc(F)cc32)C(=N)N1 (stereo partly drawn) [Example 69E], EC50 300 nM. Against it:
- CC1(C)CC(=O)N(C(c2cccc(C#N)c2)[C@H]2C[C@@H]2C(=O)NC2CC(C)(C)Oc3ccc(F)cc32)C(=N)N1 (stereo partly drawn) [Example 53B] — 140-fold lower, 2.1 nM
- COc1ccc2c(c1)OC(C)(C)C[C@@H]2NC(=O)[C@H]1C[C@@H]1[C@H](c1cccnc1)N1C(=N)NC(C)(C)CC1=O [Example 65A] — 110-fold lower, 2.8 nM
- COc1ccc2c(c1)OC(C)(C)C[C@@H]2NC(=O)[C@H]1C[C@@H]1[C@H](c1cccnc1)N1C(=N)NC(C)(C)CC1=O [Example 65B] — 38-fold lower, 8 nM
- CC[C@@]1(C)CC(=O)N(C(c2cncc(F)c2)[C@H]2C[C@@H]2C(=O)N[C@H]2CC(C)(C)Oc3ccccc32)C(=N)N1 (stereo partly drawn) [Example 67B] — 500-fold lower, 0.6 nM
- CC[C@@]1(C)CC(=O)N(C(c2cncc(F)c2)[C@H]2C[C@@H]2C(=O)N[C@H]2CC(C)(C)Oc3ccc(F)cc32)C(=N)N1 (stereo partly drawn) [Example 69A] — 300-fold lower, 1 nM
- CC[C@@]1(C)CC(=O)N(C(c2cncc(F)c2)[C@H]2C[C@@H]2C(=O)N[C@H]2CC(C)(C)Oc3ccc(F)cc32)C(=N)N1 (stereo partly drawn) [Example 69B] — 160-fold lower, 1.9 nM
- CC[C@@]1(C)CC(=O)N(C(c2cncc(F)c2)[C@H]2C[C@@H]2C(=O)N[C@H]2CC(C)(C)Oc3ccc(F)cc32)C(=N)N1 (stereo partly drawn) [Example 69C] — 380-fold lower, 0.8 nM
- CC[C@@]1(C)CC(=O)N(C(c2cncc(F)c2)[C@H]2C[C@@H]2C(=O)N[C@H]2CC(C)(C)Oc3ccc(F)cc32)C(=N)N1 (stereo partly drawn) [Example 69D] — 1000-fold lower, 0.3 nM
- COCC[C@H]([C@H]1C[C@@H]1C(=O)NC1CC(C)(C)Oc2cc(F)ccc21)N1C(=N)NC(C)(C)CC1=O (stereo partly drawn) [Example 76B] — 20-fold lower, 15 nM
- CC1(C)CC(=O)N([C@H](c2cccnc2)[C@H]2C[C@@H]2C(=O)NC2CC(C)(C)Oc3cc(F)ccc32)C(=N)N1 (stereo partly drawn) [Example 77B] — 130-fold lower, 2.3 nM
- CC1(C)CC(=O)N([C@H](c2cccnc2)[C@H]2C[C@@H]2C(=O)N[C@@H]2CC(C)(C)Oc3cccc(F)c32)C(=N)N1 [Example 86B] — 110-fold lower, 2.8 nM
